Legend:
[1] = Cytotoxicity against human MDA-MB-435 cells assessed as growth inhibition after 48 hrs by MTT assay; format: functional; conditions: MDA-MB-435, 48 h
[2] = Growth inhibition of human CCRF-CEM cells assessed as cell growth at 10 uM incubated for 48 hrs by sulforhodamine B assay relative to control; format: functional; conditions: read-out: Activity
[3] = Growth inhibition of human SR cells assessed as cell growth at 10 uM incubated for 48 hrs by sulforhodamine B assay relative to control; format: functional; conditions: read-out: Activity
[4] = Growth inhibition of human HOP62 cells assessed as cell growth at 10 uM incubated for 48 hrs by sulforhodamine B assay relative to control; format: functional; conditions: HOP-62, 48 h, read-out: Activity
[5] = Growth inhibition of human NCI-H23 cells assessed as cell growth at 10 uM incubated for 48 hrs by sulforhodamine B assay relative to control; format: functional; conditions: NCI-H23, 48 h, read-out: Activity
[6] = Growth inhibition of human NCI-H522 cells assessed as cell growth at 10 uM incubated for 48 hrs by sulforhodamine B assay relative to control; format: functional; conditions: NCI-H522, 48 h, read-out: Activity
[7] = Growth inhibition of human COLO205 cells assessed as cell growth at 10 uM incubated for 48 hrs by sulforhodamine B assay relative to control; format: functional; conditions: COLO 205, 48 h, read-out: Activity
[8] = Growth inhibition of human HCC2998 cells assessed as cell growth at 10 uM incubated for 48 hrs by sulforhodamine B assay relative to control; format: functional; conditions: HCC 2998, 48 h, read-out: Activity
[9] = Growth inhibition of human HCT116 cells assessed as cell growth at 10 uM incubated for 48 hrs by sulforhodamine B assay relative to control; format: functional; conditions: HCT-116, 48 h, read-out: Activity
[10] = Growth inhibition of human HCT15 cells assessed as cell growth at 10 uM incubated for 48 hrs by sulforhodamine B assay relative to control; format: functional; conditions: HCT-15, 48 h, read-out: Activity
[11] = Growth inhibition of human HT-29 cells assessed as cell growth at 10 uM incubated for 48 hrs by sulforhodamine B assay relative to control; format: functional; conditions: HT-29, 48 h, read-out: Activity
[12] = Growth inhibition of human SNB75 cells assessed as cell growth at 10 uM incubated for 48 hrs by sulforhodamine B assay relative to control; format: functional; conditions: SNB-75, 48 h, read-out: Activity
[13] = Growth inhibition of human LOXIMVI cells assessed as cell growth at 10 uM incubated for 48 hrs by sulforhodamine B assay relative to control; format: functional; conditions: LOX IMVI, read-out: Activity
[14] = Growth inhibition of human M14 cells assessed as cell growth at 10 uM incubated for 48 hrs by sulforhodamine B assay relative to control; format: functional; conditions: M14, 48 h, read-out: Activity
[15] = Growth inhibition of human UACC257 cells assessed as cell growth at 10 uM incubated for 48 hrs by sulforhodamine B assay relative to control; format: functional; conditions: UACC-257, 48 h, read-out: Activity
[16] = Growth inhibition of human OVCAR3 cells assessed as cell growth at 10 uM incubated for 48 hrs by sulforhodamine B assay relative to control; format: functional; conditions: OVCAR-3, 48 h, read-out: Activity
[17] = Growth inhibition of human OVCAR8 cells assessed as cell growth at 10 uM incubated for 48 hrs by sulforhodamine B assay relative to control; format: functional; conditions: OVCAR-8, 48 h, read-out: Activity
[18] = Growth inhibition of human NCI/ADR-RES cells assessed as cell growth at 10 uM incubated for 48 hrs by sulforhodamine B assay relative to control; format: functional; conditions: read-out: Activity
[19] = Growth inhibition of human Caki1 cells assessed as cell growth at 10 uM incubated for 48 hrs by sulforhodamine B assay relative to control; format: functional; conditions: CAKI-1, 48 h, read-out: Activity
[20] = Growth inhibition of human SN12C cells assessed as cell growth at 10 uM incubated for 48 hrs by sulforhodamine B assay relative to control; format: functional; conditions: read-out: Activity
[21] = Growth inhibition of human DU145 cells assessed as cell growth at 10 uM incubated for 48 hrs by sulforhodamine B assay relative to control; format: functional; conditions: DU-145, 48 h, read-out: Activity
[22] = Growth inhibition of human MCF7 cells assessed as cell growth at 10 uM incubated for 48 hrs by sulforhodamine B assay relative to control; format: functional; conditions: MCF7, 48 h, read-out: Activity
[23] = Growth inhibition of human MDA-MB-231 cells assessed as cell growth at 10 uM incubated for 48 hrs by sulforhodamine B assay relative to control; format: functional; conditions: MDA-MB-231, 48 h, read-out: Activity
[24] = Growth inhibition of human BT549 cells assessed as cell growth at 10 uM incubated for 48 hrs by sulforhodamine B assay relative to control; format: functional; conditions: BT-549, 48 h, read-out: Activity
[25] = Growth inhibition of human T47D cells assessed as cell growth at 10 uM incubated for 48 hrs by sulforhodamine B assay relative to control; format: functional; conditions: read-out: Activity
[26] = molecular target: Mitogen-activated protein kinase kinase kinase kinase 4 (Homo sapiens, UniProt O95819); assay: Inhibition of recombinant human HGK using Ulight-FLGFTYVAP as substrate after 90 mins by LANCE assay
Chain of Mitogen-activated protein kinase kinase kinase kinase 4 (O95819 whole entry): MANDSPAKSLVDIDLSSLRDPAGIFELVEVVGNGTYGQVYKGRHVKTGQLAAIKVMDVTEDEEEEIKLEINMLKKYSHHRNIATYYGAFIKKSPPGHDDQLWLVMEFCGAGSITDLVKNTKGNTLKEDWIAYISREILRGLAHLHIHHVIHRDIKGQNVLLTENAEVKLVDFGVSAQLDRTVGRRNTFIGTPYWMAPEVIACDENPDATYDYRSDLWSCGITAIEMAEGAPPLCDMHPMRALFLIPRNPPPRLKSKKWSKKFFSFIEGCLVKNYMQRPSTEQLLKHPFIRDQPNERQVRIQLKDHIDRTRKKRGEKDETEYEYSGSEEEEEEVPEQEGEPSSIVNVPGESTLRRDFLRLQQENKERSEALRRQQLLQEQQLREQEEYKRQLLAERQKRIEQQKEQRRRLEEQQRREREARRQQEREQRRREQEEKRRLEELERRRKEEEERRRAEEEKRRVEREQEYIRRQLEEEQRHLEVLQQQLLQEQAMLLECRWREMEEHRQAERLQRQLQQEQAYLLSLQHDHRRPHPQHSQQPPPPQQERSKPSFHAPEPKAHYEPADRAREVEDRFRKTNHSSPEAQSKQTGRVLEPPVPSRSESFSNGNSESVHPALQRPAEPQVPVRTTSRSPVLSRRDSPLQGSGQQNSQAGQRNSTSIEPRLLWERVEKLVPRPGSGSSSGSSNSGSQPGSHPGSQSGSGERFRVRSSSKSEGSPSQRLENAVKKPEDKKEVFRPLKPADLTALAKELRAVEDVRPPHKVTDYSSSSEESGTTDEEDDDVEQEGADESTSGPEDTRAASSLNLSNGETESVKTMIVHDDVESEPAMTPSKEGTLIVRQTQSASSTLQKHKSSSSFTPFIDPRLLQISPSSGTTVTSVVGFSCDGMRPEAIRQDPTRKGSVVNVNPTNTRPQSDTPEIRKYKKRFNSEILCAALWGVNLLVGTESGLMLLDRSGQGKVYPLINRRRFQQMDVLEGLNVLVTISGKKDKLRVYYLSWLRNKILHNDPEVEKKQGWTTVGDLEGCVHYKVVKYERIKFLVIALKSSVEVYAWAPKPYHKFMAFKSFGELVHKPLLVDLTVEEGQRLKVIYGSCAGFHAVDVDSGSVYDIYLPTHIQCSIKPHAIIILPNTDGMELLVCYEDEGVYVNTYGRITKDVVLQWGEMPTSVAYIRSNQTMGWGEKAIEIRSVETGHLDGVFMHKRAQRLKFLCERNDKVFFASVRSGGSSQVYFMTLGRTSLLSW

[27] = Growth inhibition of human HOP92 cells assessed as cell growth at 10 uM incubated for 48 hrs by sulforhodamine B assay relative to control; format: functional; conditions: HOP-92, 48 h, read-out: Activity

## C[C@@H]1NC(c2ccc(Cl)cc2)=Nc2nc3ccccn3c2C1=O
[1]
  GI50: 5000 nM
[2]
  growth at 10 µM: 90.8%
[3]
  growth at 10 µM: 46.7%
[4]
  growth at 10 µM: 73.3%
[5]
  growth at 10 µM: 81.4%
[6]
  growth at 10 µM: 66.3%
[7]
  growth at 10 µM: 91.8%
[8]
  growth at 10 µM: 91.6%
[9]
  growth at 10 µM: 97%
[10]
  growth at 10 µM: 77.6%
[11]
  growth at 10 µM: 85.4%
[12]
  growth at 10 µM: 92.5%
[13]
  growth at 10 µM: 88.2%
[14]
  growth at 10 µM: 91%
[15]
  growth at 10 µM: 80.7%
[16]
  growth at 10 µM: 84.3%
[17]
  growth at 10 µM: 90.3%
[18]
  growth at 10 µM: 85.6%
[19]
  growth at 10 µM: 84.6%
[20]
  growth at 10 µM: 96.8%
[21]
  growth at 10 µM: 100%
[22]
  growth at 10 µM: 69.2%
[23]
  growth at 10 µM: 76%
[24]
  growth at 10 µM: 93.6%
[25]
  growth at 10 µM: 81.4%

## CC(C)(C)OC[C@@H]1NC(c2ccc(Br)cc2)=Nc2nc3ccccn3c2C1=O
[1]
  GI50: 950 nM
[26]
  IC50: 5600 nM
[2]
  growth at 10 µM: 67.8%
[3]
  growth at 10 µM: 35.4%
[4]
  growth at 10 µM: 54.5%
[5]
  growth at 10 µM: 71.5%
[6]
  growth at 10 µM: 33.4%
[7]
  growth at 10 µM: 62.6%
[8]
  growth at 10 µM: 90.9%
[9]
  growth at 10 µM: 43.7%
[10]
  growth at 10 µM: 44.1%
[11]
  growth at 10 µM: 21.8%
[12]
  growth at 10 µM: 77.4%
[13]
  growth at 10 µM: 58.7%
[14]
  growth at 10 µM: 46.4%
[15]
  growth at 10 µM: 62.3%
[16]
  growth at 10 µM: 34.2%
[17]
  growth at 10 µM: 79.5%
[18]
  growth at 10 µM: 39.7%
[19]
  growth at 10 µM: 64.2%
[20]
  growth at 10 µM: 84.1%
[21]
  growth at 10 µM: 82.7%
[22]
  growth at 10 µM: 27.8%
[23]
  growth at 10 µM: 61.5%
[24]
  growth at 10 µM: 72.5%
[25]
  growth at 10 µM: 61.9%

## C[C@@H]1NC(c2ccc3ccccc3c2)=Nc2nc3ccccn3c2C1=O
[1]
  GI50: 1400 nM
[2]
  growth at 10 µM: 52.9%
[3]
  growth at 10 µM: 30.5%
[4]
  growth at 10 µM: 36.7%
[5]
  growth at 10 µM: 46.1%
[6]
  growth at 10 µM: 29.4%
[7]
  growth at 10 µM: 22.8%
[8]
  growth at 10 µM: 77%
[9]
  growth at 10 µM: 18.3%
[10]
  growth at 10 µM: 33.8%
[11]
  growth at 10 µM: 5.93%
[12]
  growth at 10 µM: 37.1%
[13]
  growth at 10 µM: 48.5%
[14]
  growth at 10 µM: 19.8%
[15]
  growth at 10 µM: 40.9%
[16]
  growth at 10 µM: 16.9%
[17]
  growth at 10 µM: 54.4%
[18]
  growth at 10 µM: 44.5%
[19]
  growth at 10 µM: 38.5%
[20]
  growth at 10 µM: 60.1%
[21]
  growth at 10 µM: 73.3%
[22]
  growth at 10 µM: 25.2%
[23]
  growth at 10 µM: 52.5%
[24]
  growth at 10 µM: 35.1%
[25]
  growth at 10 µM: 41.7%

## C[C@@H]1NC(c2ccc(Cl)cc2Cl)=Nc2nc3ccccn3c2C1=O
[1]
  GI50: 1150 nM
[26]
  IC50: > 100000 nM
[2]
  growth at 10 µM: 56.6%
[3]
  growth at 10 µM: 33%
[4]
  growth at 10 µM: 52.6%
[27]
  growth at 10 µM: 55.9%
[5]
  growth at 10 µM: 61.4%
[6]
  growth at 10 µM: 28.9%
[7]
  growth at 10 µM: 22.3%
[8]
  growth at 10 µM: 75.4%
[9]
  growth at 10 µM: 28.1%
[10]
  growth at 10 µM: 35.1%
[11]
  growth at 10 µM: 7.68%
[12]
  growth at 10 µM: 58.7%
[13]
  growth at 10 µM: 51.3%
[14]
  growth at 10 µM: 31.1%
[15]
  growth at 10 µM: 52.4%
[16]
  growth at 10 µM: 2.44%
[17]
  growth at 10 µM: 68.1%
[18]
  growth at 10 µM: 44.5%
[19]
  growth at 10 µM: 47.2%
[20]
  growth at 10 µM: 75.8%
[21]
  growth at 10 µM: 64.8%
[22]
  growth at 10 µM: 16.8%
[23]
  growth at 10 µM: 64.6%
[24]
  growth at 10 µM: 55.6%
[25]
  growth at 10 µM: 64.3%

Source: ChEMBL document CHEMBL3877299, “Imidazopyridine-fused [1,3]-diazepinones part 2: Structure-activity relationships and antiproliferative activity against melanoma cells” (Eur J Med Chem, 2017)
